Results from ChEMBL document CHEMBL4610000, “Discovery of structurally distinct tricyclic M4 positive allosteric modulator (PAM) chemotypes” (Bioorg Med Chem Lett, 2020).

Assays:
[1] = target: T1, Muscarinic acetylcholine receptor M4 (Homo sapiens, UniProt P08173); assay: Positive allosteric modulation of human muscarinic M4 receptor expressed in CHO cells co-expressing Gqi5 assessed as increase in acetylcholine-induced calcium mobilization; format: functional, cell-based
T1 sequence (P08173 whole entry): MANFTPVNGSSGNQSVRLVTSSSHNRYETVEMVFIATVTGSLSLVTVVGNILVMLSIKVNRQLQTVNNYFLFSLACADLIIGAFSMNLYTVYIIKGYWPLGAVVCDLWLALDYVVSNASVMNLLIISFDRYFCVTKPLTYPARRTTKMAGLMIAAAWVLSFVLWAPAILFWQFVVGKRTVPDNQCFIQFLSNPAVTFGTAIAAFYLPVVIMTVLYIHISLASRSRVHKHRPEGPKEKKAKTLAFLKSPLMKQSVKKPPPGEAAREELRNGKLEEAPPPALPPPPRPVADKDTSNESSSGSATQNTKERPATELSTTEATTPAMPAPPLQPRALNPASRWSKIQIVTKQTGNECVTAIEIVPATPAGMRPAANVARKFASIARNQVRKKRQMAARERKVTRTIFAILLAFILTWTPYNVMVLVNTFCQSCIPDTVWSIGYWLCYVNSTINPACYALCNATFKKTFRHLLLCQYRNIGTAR

[2] = target: T2, Muscarinic acetylcholine receptor M4 (Homo sapiens) (UniProt P08173); assay: Positive allosteric modulation of human muscarinic M4 receptor expressed in CHO cells co-expressing Gqi5 assessed as increase in acetylcholine-induced calcium mobilization relative to acetylcholine; format: functional, cell-based
T2 sequence (whole entry): T1 sequence (P08173 whole entry)

[3] = Unbound brain-to-plasma concentration ratio in Sprague-Dawley rat at 0.2 mg/kg, iv measured after 0.25 hrs; format: ADME, organism-based; settings: brain and plasma, read-out: K(p,uu,brain)
[4] = Intrinsic clearance in rat microsomes; format: ADME, Microsome
[5] = target: T3, Muscarinic acetylcholine receptor M4 (Rattus norvegicus, UniProt P08485); assay: Positive allosteric modulation of rat muscarinic M4 receptor
T3 sequence (P08485 whole entry): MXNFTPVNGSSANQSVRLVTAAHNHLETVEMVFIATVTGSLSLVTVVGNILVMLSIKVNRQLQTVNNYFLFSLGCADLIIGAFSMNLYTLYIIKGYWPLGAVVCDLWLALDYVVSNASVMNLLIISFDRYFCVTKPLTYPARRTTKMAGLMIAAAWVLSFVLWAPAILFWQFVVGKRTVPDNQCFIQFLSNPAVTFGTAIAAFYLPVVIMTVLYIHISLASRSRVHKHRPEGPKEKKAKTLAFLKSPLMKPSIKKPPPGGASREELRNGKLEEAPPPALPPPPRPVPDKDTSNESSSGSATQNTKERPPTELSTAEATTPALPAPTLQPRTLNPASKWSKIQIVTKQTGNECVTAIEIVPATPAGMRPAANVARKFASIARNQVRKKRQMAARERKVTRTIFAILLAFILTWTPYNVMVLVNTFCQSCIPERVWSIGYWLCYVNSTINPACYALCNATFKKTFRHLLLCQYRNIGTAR

[6] = Intrinsic clearance in human microsomes; format: ADME, Microsome
[7] = Brain to plasma permeability coefficient, Kp of the compound in Sprague-Dawley rat at 0.2 mg/kg, iv measured after 0.25 hrs; format: ADME, organism-based; settings: brain and plasma
[8] = Unbound fraction in human plasma; format: ADME, cell-free
[9] = Unbound fraction in rat plasma; format: ADME, cell-free
[10] = Unbound fraction in rat brain; format: ADME, tissue-based

Structure (SMILES) | EC50 [1] | %max [2] | EC50 [5] | other results
Cn1nnc2ccc3c(NC4CCCC4)ncnc3c21 | 820 nM | 69% |  | 
Cc1c2cc(C(=O)NC3CN(c4cc(Cl)ncc4Cl)C3)ccc2nn1C |  |  | 259 nM | Kp uu at 0.25 h [3]: 0.04; CLint scaled [4]: 28 mL/min/kg; CLint scaled [6]: 33 mL/min/kg; Kp at 0.25 h [7]: 0.05
[2H]C([2H])(Nc1ncnc2c1ccc1nn(C)c(C)c12)c1ccc(C(C)(C)O)cc1 | 886 nM |  |  | 
Cc1c2c(ccc3c(N4CCCC4)ncnc32)nn1C | 624 nM | 74% |  | 
COc1cc(N2CC(Nc3ncnc4c3ccc3nnn(C)c34)C2)c(Cl)cn1 | 1490 nM | 93% |  | 
Cn1nnc2ccc(C(=O)NC3CN(c4ccnc(C(F)(F)F)c4)C3)c(N)c21 | 814 nM | 79% |  | 
Cn1nnc2ccc(C(=O)NC3CN(c4ccc(F)c(F)c4)C3)c(N)c21 | 2430 nM | 94% |  | 
Cc1c2c(N)c(C(=O)NC3CN(c4ncccc4F)C3)ccc2nn1C | 3550 nM | 103% |  | 
Cc1c2c(N)c(C(=O)NC3CN(c4cccc(Cl)n4)C3)ccc2nn1C | 1450 nM | 78% |  | 
Cn1nnc2ccc(C(=O)NC3CN(c4cc(Cl)ncc4Cl)C3)cc21 |  |  | 721 nM | Kp uu at 0.25 h [3]: < 0.11; CLint scaled [4]: 10 mL/min/kg; CLint scaled [6]: 21 mL/min/kg; Kp at 0.25 h [7]: < 0.05
Cc1c2c(N)c(C(=O)NC3CN(c4ccc(F)c(F)c4)C3)ccc2nn1C | 619 nM | 85% |  | 
Cn1nnc2ccc(C(=O)NC3CN(c4ncc(F)cc4Cl)C3)c(N)c21 | 3600 nM | 80% |  | 
Cn1nnc2ccc(C(=O)NC3CN(c4cccc(Cl)n4)C3)c(N)c21 | 4500 nM | 84% |  | 
Cc1c2c(N)c(C(=O)NC3CN(c4ncc(F)cn4)C3)ccc2nn1C | 6210 nM | 90% |  | 
Cn1nnc2ccc(C(=O)NC3CN(c4ccc(C#N)cn4)C3)c(N)c21 | 1720 nM | 60% |  | 
Cc1c2c(ccc3c(NCc4ccc(F)c(F)c4)ncnc32)nn1C | 1480 nM | 86% |  | 
Cn1nnc2ccc3c(NCc4ccc(C(C)(C)O)cc4)ncnc3c21 | 1720 nM | 97% |  | 
Cc1c2c(ccc3c(NCc4ccc(C(=O)NCC(C)(C)C)cc4)ncnc32)nn1C | 957 nM | 90% |  | 
Cc1c2c(ccc3c(NC4CCCC4)ncnc32)nn1C | 848 nM | 76% |  | 

Second part, led by results:

EC50 [1] | %max [2] | EC50 [5] | Structure (SMILES) | other results
592 nM | 74% |  | COc1ccc(CNc2ncnc3c2ccc2nnn(C)c23)cc1F | 
475 nM | 100% | 322 nM | Cc1c2c(ccc3c(NCc4ccc(C(=O)NC5CCC5)cc4)ncnc32)nn1C | 
275 nM | 101% | 254 nM | Cc1c2c(ccc3c(NC4CN(c5cc(Cl)ncc5Cl)C4)ncnc32)nn1C | Kp uu at 0.25 h [3]: 0.11; fraction unbound [8]: 0.008; CLint scaled [4]: 170 mL/min/kg; fraction unbound [9]: 0.004; CLint scaled [6]: 120 mL/min/kg; Kp at 0.25 h [7]: 0.21; fraction unbound [10]: 0.002
467 nM | 98% |  | Cc1c2c(ccc3c(CC(C)(C)C)ncnc32)nn1C | 
244 nM | 96% | 72 nM | Cc1c2c(N)c(C(=O)NC3CN(c4ncc(Cl)cc4F)C3)ccc2nn1C | 
552 nM | 86% |  | Cc1c2c(ccc3c(NCc4ccc(C(C)(C)O)cc4)ncnc32)nn1C | %max ([2]; tested as the 2H-labelled form): 86%
379 nM | 86% | 226 nM | COc1cc(N2CC(Nc3ncnc4c3ccc3nn(C)c(C)c34)C2)c(Cl)cn1 | Kp uu at 0.25 h [3]: 3.88; fraction unbound [8]: 0.007; CLint scaled [4]: 120 mL/min/kg; fraction unbound [9]: 0.002; CLint scaled [6]: 55 mL/min/kg; Kp at 0.25 h [7]: 1.55; fraction unbound [10]: 0.005
125 nM | 86% | 42 nM | Cc1c2c(N)c(C(=O)NC3CN(c4cc(Cl)ncc4Cl)C3)ccc2nn1C | Kp uu at 0.25 h [3]: 0.3; fraction unbound [8]: 0.034; CLint scaled [4]: 180 mL/min/kg; fraction unbound [9]: 0.01; CLint scaled [6]: 50 mL/min/kg; Kp at 0.25 h [7]: 0.12; fraction unbound [10]: 0.025
91 nM | 63% | 157 nM | Cn1nnc2ccc(C(=O)NC3CN(c4cc(Cl)ncc4Cl)C3)c(N)c21 | Kp uu at 0.25 h [3]: 0.18; fraction unbound [8]: 0.084; CLint scaled [4]: 120 mL/min/kg; fraction unbound [9]: 0.032; CLint scaled [6]: 27 mL/min/kg; Kp at 0.25 h [7]: 0.17; fraction unbound [10]: 0.033
158 nM | 93% | 129 nM | Cc1c2c(N)c(C(=O)NC3CN(c4ncc(C#N)cc4Cl)C3)ccc2nn1C | 
462 nM | 83% |  | Cn1nnc2ccc(C(=O)NC3CN(c4ncc(C#N)cc4Cl)C3)c(N)c21 | 
364 nM | 65% | 167 nM | Cn1nnc2ccc(C(=O)NC3CN(c4ncc(Cl)cc4F)C3)c(N)c21 | 
239 nM | 100% | 168 nM | Cc1c2c(ccc3c(NCc4ccc(C(=O)NC5CCCC5)cc4)ncnc32)nn1C | 
528 nM | 90% |  | Cc1c2c(ccc3c(N4CC5(COC5)C4)ncnc32)nn1C | 
63 nM | 81% | 148 nM | Cn1nnc2ccc3c(NC4CN(c5cc(Cl)ncc5Cl)C4)ncnc3c21 | Kp uu at 0.25 h [3]: 0.11; fraction unbound [8]: 0.021; CLint scaled [4]: 110 mL/min/kg; fraction unbound [9]: 0.007; CLint scaled [6]: 21 mL/min/kg; Kp at 0.25 h [7]: 0.25; fraction unbound [10]: 0.003
148 nM | 80% | 82 nM | COc1cc(N2CC(NC(=O)c3ccc4nn(C)c(C)c4c3N)C2)c(Cl)cn1 | Kp uu at 0.25 h [3]: 0.25; fraction unbound [8]: 0.045; CLint scaled [4]: 30 mL/min/kg; fraction unbound [9]: 0.008; CLint scaled [6]: 9 mL/min/kg; Kp at 0.25 h [7]: 0.18; fraction unbound [10]: 0.011
373 nM | 71% | 232 nM | COc1cc(N2CC(NC(=O)c3ccc4nnn(C)c4c3N)C2)c(Cl)cn1 | 
470 nM | 95% | 181 nM | COc1ccc(CNc2ncnc3c2ccc2nn(C)c(C)c23)cc1F | 
137 nM | 80% | 112 nM | Cc1c2c(N)c(C(=O)NC3CN(c4ccc(C(F)(F)F)nc4)C3)ccc2nn1C | 
